Laboratory results as given in patent US20240368151A1, “NOVEL ERGOLINES AND METHODS OF TREATING MOOD DISORDERS” (priority 2021, published 2024).

Experiments:
[1] = test system: Sprague Dawley rats; assay: Forced swim test (FST) in rats; type: in vivo, rat; settings: rat FST, 20 mg/kg SC at 23.5 h, 5 h and 1 h before test swim; average of 3 independent experiments
Method: Compound 1 induced antidepressant-like effects in the forced swim test (FST) in rats with a 23.5-h pre-treatment time (FIG. 2).
Animals. Male Sprague Dawley rats, aged 9-10 weeks, were used in this experiment. Animals were housed in groups of 2 under controlled temperature (22±3° C.) and relative humidity (30-70%) conditions, with 12-hour light/dark cycles, and with ad libitum food and water. This study was carried out in strict accordance with the requirements of the Committee for the Purpose of Control and Supervision of Experiments on Animals (CPCSEA), India. All efforts were made to minimize suffering.
Drugs and Drug Administration. Compound 1 was synthesized as described above. Desipramine HCl was commercially obtained. The test compound, saline vehicle, and the positive control desipramine were administered subcutaneously (SC), with doses calculated based on the freebase. Normal saline was used as the vehicle. All compounds were administered at a volume of 5 mL/kg. The test compound and vehicle were administered 0.5 h after the start of the training swim (Swim 1) and 23.5 h before the test swim (Swim 2). Desipramine was administered 3 times, at 23.5 h, 5 h, and 1 h before the test swim (Swim 2), each time at a dose of 20 mg/kg. Group size was n=10 per treatment.
Forced Swim Test (FST). […] Rats were handled for about 2 min daily for the 5 days prior to the beginning of the experimental procedure. On the first day of the experiment (i.e., Day 0), post randomization, training swim sessions (Swim 1) were conducted between 12:00 and 18:00 h with all animals by placing rats in individual glass cylinders (46 cm tall×20 cm in diameter) containing 23-25° C. water 30 cm deep for 15 minutes. At the conclusion of Swim 1, animals were dried with paper towels, placed in heated drying cages for 15 minutes, and then returned to their home cages. Animals were then administered the appropriate drug or vehicle treatment(s), as described above. For clarity, a compound administration time of 23.5 h before Swim 2 means 0.5 h after the start of Swim 1 and 0.25 h after the completion of Swim 1 (i.e., immediately after return to the home cage). On Day 1 (i.e., 24 h after start of Swim 1), animals performed the test swim (Swim 2) for a period of 5 min but otherwise under the same conditions as Swim 1. During all swim sessions, the water was changed between each animal.
Behavioral scoring was conducted by observers who were blind to the treatment groups. Animals were continuously observed during Swim 2 and the total time spent engaging in the following behaviors was recorded: immobile, swimming, and climbing. A rat was judged to be immobile when it remained floating in the water without struggling and was making only those movements necessary to keep its head above water. A rat was judged to be swimming when it made active swimming motions, more than necessary to merely maintain its head above water (e.g., moving around in the cylinder). A rat was judged to be climbing when it made active movements with its forepaws in and out of the water, usually directed against the walls.
Statistical Analysis. The data points shown represent the mean±standard error of the mean (SEM). Analysis was performed using GraphPad Prism 6. Comparisons between groups were performed using the one-way analysis of variance (ANOVA), followed by Dunnett's test for comparisons to vehicle.
Additional disclosed compounds were tested in the forced swim test (FST) in rats according to the procedure described in Example 35.

[2] = Metabolic stability in mouse liver microsomes (MLM); type: in vitro ADME; settings: mouse, pooled mouse liver microsomes, pH 7.4, MLM (CD-1), NADPH
Text: MLM Stability Pooled MLM from CD-1 mice (BIOIVT M00501) were used.

[3] = biological target: T1, 5-HT2A receptor (Homo sapiens (Human), UniProt P28223); type: cell-based; settings: Ca^2+ flux, HEK293
Method: (§1) Functional Assays at 5-HT2A, 5-HT2B, and 5-HT1A. Agonist activity at 5-HT2A, 5-HT2B, and 5-HT1A receptors was determined using a FLIPR Ca^2+ flux assay at WuXi AppTec (Hong Kong) Limited according to their standard protocols. Briefly, stably transfected cells expressing the receptor of interest (HEK293 for 5-HT2A and 5-HT2B; CHO cells for 5-HT1A) were grown and plated in a 384 well plate and incubated at 37° C. and 5% CO2 overnight. A solution of 250 mM probenecid in 1 mL FLIPR assay buffer was prepared fresh. This was combined with a fluorescent dye (Fluo-4 Direct™) to make a final assay concentration of 2.5 mM. […] The fluorescent dye was then added to the assay plate along with assay buffer to a final volume of 40 μL. The cell plate was incubated for 50 min at 37° C. and 5% CO2 and placed into the FLIPR Tetra along with the compound plate. 10p L of references and compounds were then transferred from the compound plate into the cell plate and the fluorescent signal was read.

[4] = biological target: T1, 5-HT2A receptor; type: cell-based; settings: beta-arrestin recruitment
Method: The degree of arrestin bias varied substantially across the other compounds tested as well.
Arrestin Functional Assay at 5-HT2A. Recruitment of beta-arrestin was determined using a PathHunter assay at Eurofins DiscoverX (Fremont, CA) according to their standard protocols. PathHunter GPCR beta-arrestin assays take advantage of DiscoverX's proprietary Enzyme Fragment Complementation technology. The GPCR is fused in frame with a small enzyme donor fragment ProLink™ (PK) and co-expressed in cells stably expressing a fusion protein of beta-arrestin and the larger, N-terminal deletion mutant of beta-galactosidase. Activation of the GPCR (5-HT2A receptor in this case) stimulates binding of beta-arrestin to the PK-tagged GPCR and forces complementation of the two enzyme fragments, resulting in the formation of an active beta-galactosidase enzyme. This interaction leads to an increase in enzyme activity that can be measured using chemiluminescent PathHunter Detection Reagents. Briefly, PathHunter cells expressing 5-HT2A receptors were seeded in a volume of 20 μL into 384-well plates and incubated at 37° C. for the appropriate time prior to testing. […] Plates were then imaged on a microplate reader and the agonist activity was calculated using the following formula: % Activity=100%×(mean RLU of test sample−mean RLU of vehicle control)/(mean MAX control ligand−mean RLU of vehicle control), where RLU=relative light units.

[5] = biological target: 5-HT1B receptor (Homo sapiens (Human), UniProt P28222); assay: cAMP accumulation agonist assay at 5-HT1B; type: cell-based
5-HT1B receptor, sequence (P28222 whole entry, looked up): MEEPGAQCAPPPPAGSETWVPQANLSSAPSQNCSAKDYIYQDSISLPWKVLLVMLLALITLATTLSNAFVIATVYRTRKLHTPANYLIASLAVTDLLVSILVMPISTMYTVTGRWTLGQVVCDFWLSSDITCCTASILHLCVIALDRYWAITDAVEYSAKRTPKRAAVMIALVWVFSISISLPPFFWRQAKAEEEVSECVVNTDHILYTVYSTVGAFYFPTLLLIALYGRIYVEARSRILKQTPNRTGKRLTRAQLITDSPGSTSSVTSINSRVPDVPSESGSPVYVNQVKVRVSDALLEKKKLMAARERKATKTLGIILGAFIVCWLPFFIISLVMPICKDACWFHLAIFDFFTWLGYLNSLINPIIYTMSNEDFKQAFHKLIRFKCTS
Method: Functional Assay at 5-HT1B. Agonist activity at 5-HT1B was determined using a cAMP accumulation protocol at WuXi AppTec (Hong Kong) Limited according to their standard protocols. Briefly, stably transfected cells were plated in an OptiPlate-384 well plate, incubated at RT for 60 mins, and cAMP standard solution (800 nM, 10 μL) was added to the blank well. Then, 10 μL detection reagent was added to each well, the plate incubated for 60 mins at RT, and the plate read using EnVision.

[6] = biological target: Alpha1A receptor (Homo sapiens (Human), UniProt P35348); assay: FLIPR Ca^2+ flux agonist assay at Alpha1A; type: cell-based
Alpha1A receptor, sequence (P35348 whole entry, looked up): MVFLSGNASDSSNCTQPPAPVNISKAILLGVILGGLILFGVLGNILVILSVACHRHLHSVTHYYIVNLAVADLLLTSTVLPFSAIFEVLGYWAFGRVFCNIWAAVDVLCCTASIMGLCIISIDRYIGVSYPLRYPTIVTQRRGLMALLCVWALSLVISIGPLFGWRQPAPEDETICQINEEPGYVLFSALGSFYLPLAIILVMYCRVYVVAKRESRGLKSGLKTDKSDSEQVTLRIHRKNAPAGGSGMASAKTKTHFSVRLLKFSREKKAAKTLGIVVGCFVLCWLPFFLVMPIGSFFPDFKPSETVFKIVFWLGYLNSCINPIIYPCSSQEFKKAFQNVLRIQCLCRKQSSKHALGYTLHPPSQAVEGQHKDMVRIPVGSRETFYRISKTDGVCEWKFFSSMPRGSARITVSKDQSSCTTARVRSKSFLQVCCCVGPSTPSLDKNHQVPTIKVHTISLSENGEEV
Method: Disclosed compounds were tested for agonist activity at several adrenergic (Alpha1A and Alpha2A) and dopamine (D1 and D2) receptor subtypes using Ca^2+ flux functional assays, with the results summarized in Table 6. Selectivity for the 5-HT2A receptor over these other targets varied depending on the specific target and compound.
(§2) Functional Assays at Adrenergic and Dopamine Receptors. Agonist activity at Alpha1A, Alpha2A, D1, and D2 receptors was determined using a FLIPR Ca^2+ flux assay at WuXi AppTec (Hong Kong) Limited according to their standard protocols. Briefly, stably transfected cells expressing the receptor of interest were grown and plated in a 384 well plate and incubated at 37° C. and 5% CO2 overnight. A solution of 250 mM probenecid in 1 mL FLIPR assay buffer was prepared fresh. This was combined with a fluorescent dye (Fluo-4 Direct™) to make a final assay concentration of 2.5 mM. Compounds were diluted 1:3.16 for 10 points and 750 nL was added to a 384 well compound plate using ECHO along with 30 μL assay buffer. The fluorescent dye was then added to the assay plate along with assay buffer to a final volume of 40 μL. The cell plate was incubated for 50 min at 37° C. and 5% CO2 and placed into the FLIPR Tetra along with the compound plate. 10 μL of references and compounds were then transferred from the compound plate into the cell plate and the fluorescent signal was read.

[7] = biological target: D2 receptor (Homo sapiens (Human), UniProt P14416); assay: FLIPR Ca^2+ flux agonist assay at D2; type: cell-based
D2 receptor, sequence (P14416 whole entry, looked up): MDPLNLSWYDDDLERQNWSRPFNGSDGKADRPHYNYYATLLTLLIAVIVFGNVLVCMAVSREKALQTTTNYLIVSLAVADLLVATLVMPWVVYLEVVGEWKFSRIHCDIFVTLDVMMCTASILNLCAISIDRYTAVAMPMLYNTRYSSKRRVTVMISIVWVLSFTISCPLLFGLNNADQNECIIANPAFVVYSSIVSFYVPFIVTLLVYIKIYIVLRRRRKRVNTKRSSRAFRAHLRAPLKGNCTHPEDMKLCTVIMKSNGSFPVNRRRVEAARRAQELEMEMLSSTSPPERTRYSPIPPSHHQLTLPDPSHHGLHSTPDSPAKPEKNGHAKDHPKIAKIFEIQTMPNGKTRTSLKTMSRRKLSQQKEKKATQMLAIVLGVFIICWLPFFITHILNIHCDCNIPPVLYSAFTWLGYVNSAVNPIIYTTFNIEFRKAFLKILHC
Method: as §2, with “Compounds were diluted 1:3.16 for 10 points and 750 nL was added to a 384 well compound plate using ECHO along with 30 μL assay buffer.” left out

[8] = biological target: 5-HT2B receptor (Homo sapiens (Human), UniProt P41595); assay: FLIPR Ca^2+ flux agonist assay at 5-HT2B; type: cell-based; settings: HEK293
5-HT2B receptor, sequence (P41595 whole entry, looked up): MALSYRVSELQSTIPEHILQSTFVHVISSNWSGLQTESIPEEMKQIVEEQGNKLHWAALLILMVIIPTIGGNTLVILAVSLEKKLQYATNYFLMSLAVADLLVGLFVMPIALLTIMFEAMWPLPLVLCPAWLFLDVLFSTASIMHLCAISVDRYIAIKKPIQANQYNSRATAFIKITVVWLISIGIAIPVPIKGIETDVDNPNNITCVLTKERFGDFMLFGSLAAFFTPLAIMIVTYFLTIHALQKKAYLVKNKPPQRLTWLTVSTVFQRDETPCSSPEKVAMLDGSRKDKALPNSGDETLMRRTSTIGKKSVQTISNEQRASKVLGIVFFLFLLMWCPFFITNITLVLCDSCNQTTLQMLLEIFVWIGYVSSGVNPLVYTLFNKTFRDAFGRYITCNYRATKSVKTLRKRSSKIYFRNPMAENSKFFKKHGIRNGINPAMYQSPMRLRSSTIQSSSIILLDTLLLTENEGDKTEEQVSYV
Method: as §1

[9] = biological target: 5-HT1A receptor (Homo sapiens (Human), UniProt P08908); assay: FLIPR Ca^2+ flux agonist assay at 5-HT1A; type: cell-based; settings: CHO cells
Method: as §1

[10] = Metabolic stability in rat liver microsomes (RLM); type: in vitro ADME; settings: both sexes, rat, pooled rat liver microsomes, pH 7.4, NADPH
[11] = Metabolic stability in human liver microsomes (HLM); type: in vitro ADME; settings: both sexes, human, pooled human liver microsomes, pH 7.4, NADPH
Text: HLM Stability. Pooled HLM from adult male and female donors (Corning 452117) were used.

[12] = biological target: D1 receptor (Homo sapiens (Human), UniProt P21728); assay: FLIPR Ca^2+ flux agonist assay at D1; type: cell-based
D1 receptor, sequence (P21728 whole entry, looked up): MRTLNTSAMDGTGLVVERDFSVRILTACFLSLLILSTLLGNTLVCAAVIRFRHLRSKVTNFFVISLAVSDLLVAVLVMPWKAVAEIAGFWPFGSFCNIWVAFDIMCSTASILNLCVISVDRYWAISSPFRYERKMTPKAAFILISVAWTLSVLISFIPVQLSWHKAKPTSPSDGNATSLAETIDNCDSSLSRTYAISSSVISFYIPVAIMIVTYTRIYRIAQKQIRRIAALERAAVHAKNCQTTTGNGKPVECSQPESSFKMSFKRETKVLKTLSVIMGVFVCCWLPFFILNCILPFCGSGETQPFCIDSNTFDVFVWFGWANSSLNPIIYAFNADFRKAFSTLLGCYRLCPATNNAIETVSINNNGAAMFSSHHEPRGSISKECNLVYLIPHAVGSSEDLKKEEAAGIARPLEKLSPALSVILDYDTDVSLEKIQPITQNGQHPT
Method: as §2, with “Compounds were diluted 1:3.16 for 10 points and 750 nL was added to a 384 well compound plate using ECHO along with 30 μL assay buffer.” left out

Compound | Time Immobile [1] [s] | half-life at 1 μM [2] [min] | 5-HT2A % Act @ Max Dose [3] [%] | 5-HT2A Arrestin % Act @ Max Dose [4] [%] | agonist type in the 5-HT2A arrestin recruitment assay, in words [4] | 5-HT1B % Act @ Max Dose [5] [%] | Alpha 1A % Act @ Max Dose [6] [%] | D2 % Act @ Max Dose [7] [%] | 5-HT2B % Act @ Max Dose [8] [%] | 5-HT1A % Act @ Max Dose [9] [%] | half-life at 1 μM [10] [min] | half-life at 1 μM [11] [min] | D1 % Act @ Max Dose [12] [%]
CNCCCN1c2ccccc2CCc2ccccc21 [Desipramine, reference compound] | 60.93 | – | – | – | – | – | – | – | – | – | – | – | –
CCN(CC)C(=O)[C@@H]1C=C2c3cccc4[nH]cc(c34)C[C@H]2N(C)C1 [LSD, lysergic acid diethylamide, reference compound] | – | 31.3 | 107.7 | 52.646 | partial agonists | 98.03 | 60.3 | 78.33 | 19.26 | 91.39 | 60.2 | 71.6 | 94.9
CCN(CC)C(=O)[C@@H]1C=C2c3cccc4[nH]cc(c34)C[C@H]2N(CCC(F)(F)F)C1 [Compound 12, (6aR,9R)-N,N-diethyl-7-(3,3,3-trifluoropropyl)-4,6,6a,7,8,9-hexahydroindolo[4,3-fg]quinoline-9-carboxamide] | – | 2.1 | 78.69 | – | – | 95.51 | 2.08 | – | 29.55 | 71.42 | 5.9 | 13.5 | –
CCN(CC)C(=O)[C@@H]1C=C2c3cccc4[nH]cc(c34)C[C@H]2N(CC2CC2)C1 [Compound 13, (6aR,9R)-N,N-diethyl-7-(Cyclopropylmethyl)-4,6,6a,7,8,9-hexahydroindolo[4,3-fg]quinoline-9-carboxamide] | – | 3.7 | 92.60 | – | – | 90.43 | 80.79 | – | 91.75 | 83.08 | 27.7 | 21.1 | –
